System: Myotubes from type II diabetic subjects
Assay: T0901317 response in myotubes from type II diabetic vs healthy subjects
Type: cell-based, human
Settings: 1 μM; type II diabetic myotubes compared to myotubes from healthy donors
Method: FIG. 9. […] T0901317 (1 μM) response of (A) palmitate uptake, distribution into cellular lipids and oxidation and (B) glucose uptake (GT), oxidation (GOX) and glycogen synthesis (GS) in myotubes from healthy donors and donors with type 2 diabetes #p≦0.05 vs control myotubes.

`O=S(=O)(c1ccccc1)N(CC(F)(F)F)c1ccc(C(O)(C(F)(F)F)C(F)(F)F)cc1` [Example T0901317] was tested, and the “glucose uptake in response to T0901317” value was “reduced”, the “palmitate oxidation to CO2 in response to T0901317” value was “absence” and the “uptake and incorporation of palmitate into complex lipids in response to T0901317” value was “elevated”.

Source: patent US20100137266A1, “TREATMENT OF INSULIN RESISTANCE AND DISORDERS ASSOCIATED THEREWITH” (UNIVERSITETET I OSLO, priority 2006, published 2010)
